From ChEMBL document CHEMBL5291721, “A preclinical secondary pharmacology resource illuminates target-adverse drug reaction associations of marketed drugs” (Nat Commun, 2023)

Assays:
[1] = target: T1, Muscarinic acetylcholine receptor M1 (Homo sapiens, UniProt P11229)
T1 sequence (P11229 whole entry): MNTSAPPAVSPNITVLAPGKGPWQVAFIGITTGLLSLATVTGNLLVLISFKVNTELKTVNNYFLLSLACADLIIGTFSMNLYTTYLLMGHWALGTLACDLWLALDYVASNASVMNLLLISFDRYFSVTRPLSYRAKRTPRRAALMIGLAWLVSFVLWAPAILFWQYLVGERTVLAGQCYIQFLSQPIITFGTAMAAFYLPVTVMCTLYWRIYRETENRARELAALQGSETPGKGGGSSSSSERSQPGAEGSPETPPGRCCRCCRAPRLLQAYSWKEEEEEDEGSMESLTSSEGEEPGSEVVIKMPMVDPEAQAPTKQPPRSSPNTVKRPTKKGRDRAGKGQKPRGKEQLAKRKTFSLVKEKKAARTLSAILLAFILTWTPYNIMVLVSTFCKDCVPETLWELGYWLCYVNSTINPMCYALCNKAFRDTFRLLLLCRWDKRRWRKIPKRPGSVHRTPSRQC

Androgen receptor [2] = target: T2, Androgen receptor (Rattus norvegicus, UniProt P15207)
T2 sequence (P15207 whole entry): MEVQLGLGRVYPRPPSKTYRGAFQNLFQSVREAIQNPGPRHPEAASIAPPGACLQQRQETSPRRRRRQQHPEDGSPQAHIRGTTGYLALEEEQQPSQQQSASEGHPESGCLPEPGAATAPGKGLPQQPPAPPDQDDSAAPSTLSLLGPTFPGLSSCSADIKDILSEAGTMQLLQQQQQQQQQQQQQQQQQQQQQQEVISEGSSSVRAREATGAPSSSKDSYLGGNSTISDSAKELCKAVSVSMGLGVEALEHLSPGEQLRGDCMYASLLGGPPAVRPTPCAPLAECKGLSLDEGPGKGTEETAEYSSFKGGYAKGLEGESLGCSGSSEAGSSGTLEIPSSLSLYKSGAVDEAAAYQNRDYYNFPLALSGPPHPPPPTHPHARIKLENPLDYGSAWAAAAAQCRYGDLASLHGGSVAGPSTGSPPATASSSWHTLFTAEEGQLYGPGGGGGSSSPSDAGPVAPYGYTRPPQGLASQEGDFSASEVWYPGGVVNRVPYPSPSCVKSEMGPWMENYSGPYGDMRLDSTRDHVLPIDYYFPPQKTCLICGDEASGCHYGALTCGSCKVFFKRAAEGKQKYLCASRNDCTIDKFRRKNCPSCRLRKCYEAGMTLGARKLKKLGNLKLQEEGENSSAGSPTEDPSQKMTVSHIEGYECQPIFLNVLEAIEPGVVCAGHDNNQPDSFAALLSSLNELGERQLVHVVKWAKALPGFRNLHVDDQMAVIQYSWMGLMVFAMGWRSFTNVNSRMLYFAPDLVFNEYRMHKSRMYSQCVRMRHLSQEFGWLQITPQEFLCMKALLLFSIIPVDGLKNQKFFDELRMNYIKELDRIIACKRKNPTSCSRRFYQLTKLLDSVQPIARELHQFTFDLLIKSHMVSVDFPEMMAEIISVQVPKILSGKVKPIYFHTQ

Estrogen receptor beta = Estrogen receptor beta (Homo sapiens, UniProt Q92731)
Estrogen receptor beta, sequence (Q92731 whole entry): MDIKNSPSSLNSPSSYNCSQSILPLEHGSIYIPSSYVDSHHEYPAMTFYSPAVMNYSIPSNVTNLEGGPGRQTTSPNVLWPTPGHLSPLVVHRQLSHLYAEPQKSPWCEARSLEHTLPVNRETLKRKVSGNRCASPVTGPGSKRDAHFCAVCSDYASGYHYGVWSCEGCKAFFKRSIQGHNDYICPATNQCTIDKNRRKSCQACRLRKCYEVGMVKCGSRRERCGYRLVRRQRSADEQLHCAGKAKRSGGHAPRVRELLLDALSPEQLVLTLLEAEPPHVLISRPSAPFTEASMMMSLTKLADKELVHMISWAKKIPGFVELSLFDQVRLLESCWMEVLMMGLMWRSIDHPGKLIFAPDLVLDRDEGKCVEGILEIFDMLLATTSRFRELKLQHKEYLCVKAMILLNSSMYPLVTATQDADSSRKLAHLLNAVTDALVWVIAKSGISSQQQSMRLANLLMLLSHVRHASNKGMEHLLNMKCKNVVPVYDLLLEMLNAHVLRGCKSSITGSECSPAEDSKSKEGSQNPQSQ

[3] = target: T3, Muscarinic acetylcholine receptor M4 (Homo sapiens, UniProt P08173)
T3 sequence (P08173 whole entry): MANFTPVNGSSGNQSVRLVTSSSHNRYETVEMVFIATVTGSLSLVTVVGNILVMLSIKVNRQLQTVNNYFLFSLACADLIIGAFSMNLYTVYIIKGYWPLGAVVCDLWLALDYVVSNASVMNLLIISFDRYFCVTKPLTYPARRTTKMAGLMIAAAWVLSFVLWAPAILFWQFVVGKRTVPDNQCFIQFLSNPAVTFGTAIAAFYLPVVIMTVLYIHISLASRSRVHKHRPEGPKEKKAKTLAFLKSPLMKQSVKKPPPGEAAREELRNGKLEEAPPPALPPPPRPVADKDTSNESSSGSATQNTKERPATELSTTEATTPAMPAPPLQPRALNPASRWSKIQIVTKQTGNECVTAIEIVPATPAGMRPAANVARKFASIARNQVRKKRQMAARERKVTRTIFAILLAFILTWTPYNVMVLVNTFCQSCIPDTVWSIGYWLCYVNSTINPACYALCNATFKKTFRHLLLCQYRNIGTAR

Substance-K receptor = target: T4, Substance-K receptor (Homo sapiens, UniProt P21452)
T4 sequence (P21452 whole entry): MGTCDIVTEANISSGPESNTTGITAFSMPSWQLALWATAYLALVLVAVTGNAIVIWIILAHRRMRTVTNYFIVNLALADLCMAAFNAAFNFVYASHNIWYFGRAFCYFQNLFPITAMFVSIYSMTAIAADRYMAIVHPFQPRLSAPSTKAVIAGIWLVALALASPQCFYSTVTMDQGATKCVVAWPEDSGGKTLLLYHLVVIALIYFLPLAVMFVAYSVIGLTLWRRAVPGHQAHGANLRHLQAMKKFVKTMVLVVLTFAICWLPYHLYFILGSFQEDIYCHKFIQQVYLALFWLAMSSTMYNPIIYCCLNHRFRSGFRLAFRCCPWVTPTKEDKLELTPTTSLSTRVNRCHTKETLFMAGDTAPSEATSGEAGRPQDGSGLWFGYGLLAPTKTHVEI

[4] = target: Rod cGMP-specific 3',5'-cyclic phosphodiesterase subunit alpha (Homo sapiens, UniProt P16499); type: functional
Cannabinoid receptor 1 = Cannabinoid receptor 1 (Homo sapiens, UniProt P21554); type: functional
Androgen receptor [5] = target: T2, Androgen receptor; type: functional
Androgen receptor [6] = target: T2, Androgen receptor; type: functional; remark: listed apart in the source
[7] = target: Hydroxycarboxylic acid receptor 2 (Homo sapiens, UniProt Q8TDS4)
Hydroxycarboxylic acid receptor 2, sequence (Q8TDS4 whole entry): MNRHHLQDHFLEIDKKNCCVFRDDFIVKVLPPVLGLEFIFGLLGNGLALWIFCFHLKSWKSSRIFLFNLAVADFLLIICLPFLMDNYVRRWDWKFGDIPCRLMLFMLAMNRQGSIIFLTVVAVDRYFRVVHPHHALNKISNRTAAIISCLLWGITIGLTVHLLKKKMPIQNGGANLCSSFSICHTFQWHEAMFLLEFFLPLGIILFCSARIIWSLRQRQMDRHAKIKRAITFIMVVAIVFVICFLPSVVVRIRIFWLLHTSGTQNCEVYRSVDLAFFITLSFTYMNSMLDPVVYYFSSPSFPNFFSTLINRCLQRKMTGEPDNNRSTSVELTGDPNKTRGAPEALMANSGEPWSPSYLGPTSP

[8] = target: Gamma-aminobutyric acid receptor subunit alpha-1/alpha-2/beta-2/gamma-2 (Homo sapiens, UniProt P14867+P18507+P47869+P47870); type: functional, cell-based
Gamma-aminobutyric acid receptor subunit alpha-1/alpha-2/beta-2/gamma-2, sequence (P14867 whole entry): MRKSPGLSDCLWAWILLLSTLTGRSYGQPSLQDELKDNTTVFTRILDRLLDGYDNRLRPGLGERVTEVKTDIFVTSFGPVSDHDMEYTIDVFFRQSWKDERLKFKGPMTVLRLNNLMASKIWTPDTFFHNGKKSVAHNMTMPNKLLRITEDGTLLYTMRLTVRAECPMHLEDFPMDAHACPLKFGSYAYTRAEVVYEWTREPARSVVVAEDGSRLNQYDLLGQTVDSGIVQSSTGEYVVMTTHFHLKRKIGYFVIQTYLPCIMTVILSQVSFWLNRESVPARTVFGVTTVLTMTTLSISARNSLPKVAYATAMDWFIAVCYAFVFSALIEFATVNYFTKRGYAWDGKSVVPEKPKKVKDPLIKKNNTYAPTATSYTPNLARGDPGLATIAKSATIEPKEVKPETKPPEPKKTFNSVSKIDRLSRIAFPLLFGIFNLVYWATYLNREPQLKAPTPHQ
Gamma-aminobutyric acid receptor subunit alpha-1/alpha-2/beta-2/gamma-2, sequence (P47870 whole entry): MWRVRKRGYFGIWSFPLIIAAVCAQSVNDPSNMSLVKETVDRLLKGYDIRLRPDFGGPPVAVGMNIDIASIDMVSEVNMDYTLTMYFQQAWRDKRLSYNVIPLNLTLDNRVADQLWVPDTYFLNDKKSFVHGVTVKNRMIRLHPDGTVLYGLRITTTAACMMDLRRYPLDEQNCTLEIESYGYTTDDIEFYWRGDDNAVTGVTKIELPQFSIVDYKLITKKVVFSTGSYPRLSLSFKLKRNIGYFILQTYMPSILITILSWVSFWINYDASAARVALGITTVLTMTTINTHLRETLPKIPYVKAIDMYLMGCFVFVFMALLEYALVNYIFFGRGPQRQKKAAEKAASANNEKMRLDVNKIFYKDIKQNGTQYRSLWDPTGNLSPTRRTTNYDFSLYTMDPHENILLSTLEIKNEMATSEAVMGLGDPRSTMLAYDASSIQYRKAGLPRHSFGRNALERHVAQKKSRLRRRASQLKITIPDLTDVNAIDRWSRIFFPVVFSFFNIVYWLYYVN
Gamma-aminobutyric acid receptor subunit alpha-1/alpha-2/beta-2/gamma-2, sequence (P18507 whole entry): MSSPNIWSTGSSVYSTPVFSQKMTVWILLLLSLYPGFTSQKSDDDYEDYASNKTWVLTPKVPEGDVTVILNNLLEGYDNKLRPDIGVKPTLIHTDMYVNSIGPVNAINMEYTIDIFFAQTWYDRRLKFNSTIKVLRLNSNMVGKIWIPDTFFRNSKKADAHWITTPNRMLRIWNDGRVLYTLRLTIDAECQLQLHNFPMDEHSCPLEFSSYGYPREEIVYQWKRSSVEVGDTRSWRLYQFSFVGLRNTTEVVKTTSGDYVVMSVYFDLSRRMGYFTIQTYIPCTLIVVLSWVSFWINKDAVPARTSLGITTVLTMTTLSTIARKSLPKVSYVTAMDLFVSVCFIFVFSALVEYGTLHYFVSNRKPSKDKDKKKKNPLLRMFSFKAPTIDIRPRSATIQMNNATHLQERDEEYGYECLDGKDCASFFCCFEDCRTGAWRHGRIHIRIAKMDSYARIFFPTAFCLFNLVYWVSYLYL
Gamma-aminobutyric acid receptor subunit alpha-1/alpha-2/beta-2/gamma-2, sequence (P47869 whole entry): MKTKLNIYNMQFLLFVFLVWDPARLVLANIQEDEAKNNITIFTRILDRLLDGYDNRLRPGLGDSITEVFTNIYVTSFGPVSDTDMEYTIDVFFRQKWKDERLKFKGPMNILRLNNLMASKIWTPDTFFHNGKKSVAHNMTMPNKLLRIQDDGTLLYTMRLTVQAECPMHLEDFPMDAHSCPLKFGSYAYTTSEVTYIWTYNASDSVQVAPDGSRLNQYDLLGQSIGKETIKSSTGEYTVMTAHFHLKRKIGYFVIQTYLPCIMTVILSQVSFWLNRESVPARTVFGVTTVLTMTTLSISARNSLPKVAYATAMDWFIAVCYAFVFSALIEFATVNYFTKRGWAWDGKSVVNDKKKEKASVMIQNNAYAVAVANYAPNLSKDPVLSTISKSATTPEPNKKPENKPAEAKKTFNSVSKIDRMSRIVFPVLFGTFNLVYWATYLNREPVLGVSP

[9] = target: Sodium channel protein type 5 subunit alpha (Homo sapiens, UniProt Q14524); type: functional, cell-based
Sodium channel protein type 5 subunit alpha, sequence (Q14524 whole entry): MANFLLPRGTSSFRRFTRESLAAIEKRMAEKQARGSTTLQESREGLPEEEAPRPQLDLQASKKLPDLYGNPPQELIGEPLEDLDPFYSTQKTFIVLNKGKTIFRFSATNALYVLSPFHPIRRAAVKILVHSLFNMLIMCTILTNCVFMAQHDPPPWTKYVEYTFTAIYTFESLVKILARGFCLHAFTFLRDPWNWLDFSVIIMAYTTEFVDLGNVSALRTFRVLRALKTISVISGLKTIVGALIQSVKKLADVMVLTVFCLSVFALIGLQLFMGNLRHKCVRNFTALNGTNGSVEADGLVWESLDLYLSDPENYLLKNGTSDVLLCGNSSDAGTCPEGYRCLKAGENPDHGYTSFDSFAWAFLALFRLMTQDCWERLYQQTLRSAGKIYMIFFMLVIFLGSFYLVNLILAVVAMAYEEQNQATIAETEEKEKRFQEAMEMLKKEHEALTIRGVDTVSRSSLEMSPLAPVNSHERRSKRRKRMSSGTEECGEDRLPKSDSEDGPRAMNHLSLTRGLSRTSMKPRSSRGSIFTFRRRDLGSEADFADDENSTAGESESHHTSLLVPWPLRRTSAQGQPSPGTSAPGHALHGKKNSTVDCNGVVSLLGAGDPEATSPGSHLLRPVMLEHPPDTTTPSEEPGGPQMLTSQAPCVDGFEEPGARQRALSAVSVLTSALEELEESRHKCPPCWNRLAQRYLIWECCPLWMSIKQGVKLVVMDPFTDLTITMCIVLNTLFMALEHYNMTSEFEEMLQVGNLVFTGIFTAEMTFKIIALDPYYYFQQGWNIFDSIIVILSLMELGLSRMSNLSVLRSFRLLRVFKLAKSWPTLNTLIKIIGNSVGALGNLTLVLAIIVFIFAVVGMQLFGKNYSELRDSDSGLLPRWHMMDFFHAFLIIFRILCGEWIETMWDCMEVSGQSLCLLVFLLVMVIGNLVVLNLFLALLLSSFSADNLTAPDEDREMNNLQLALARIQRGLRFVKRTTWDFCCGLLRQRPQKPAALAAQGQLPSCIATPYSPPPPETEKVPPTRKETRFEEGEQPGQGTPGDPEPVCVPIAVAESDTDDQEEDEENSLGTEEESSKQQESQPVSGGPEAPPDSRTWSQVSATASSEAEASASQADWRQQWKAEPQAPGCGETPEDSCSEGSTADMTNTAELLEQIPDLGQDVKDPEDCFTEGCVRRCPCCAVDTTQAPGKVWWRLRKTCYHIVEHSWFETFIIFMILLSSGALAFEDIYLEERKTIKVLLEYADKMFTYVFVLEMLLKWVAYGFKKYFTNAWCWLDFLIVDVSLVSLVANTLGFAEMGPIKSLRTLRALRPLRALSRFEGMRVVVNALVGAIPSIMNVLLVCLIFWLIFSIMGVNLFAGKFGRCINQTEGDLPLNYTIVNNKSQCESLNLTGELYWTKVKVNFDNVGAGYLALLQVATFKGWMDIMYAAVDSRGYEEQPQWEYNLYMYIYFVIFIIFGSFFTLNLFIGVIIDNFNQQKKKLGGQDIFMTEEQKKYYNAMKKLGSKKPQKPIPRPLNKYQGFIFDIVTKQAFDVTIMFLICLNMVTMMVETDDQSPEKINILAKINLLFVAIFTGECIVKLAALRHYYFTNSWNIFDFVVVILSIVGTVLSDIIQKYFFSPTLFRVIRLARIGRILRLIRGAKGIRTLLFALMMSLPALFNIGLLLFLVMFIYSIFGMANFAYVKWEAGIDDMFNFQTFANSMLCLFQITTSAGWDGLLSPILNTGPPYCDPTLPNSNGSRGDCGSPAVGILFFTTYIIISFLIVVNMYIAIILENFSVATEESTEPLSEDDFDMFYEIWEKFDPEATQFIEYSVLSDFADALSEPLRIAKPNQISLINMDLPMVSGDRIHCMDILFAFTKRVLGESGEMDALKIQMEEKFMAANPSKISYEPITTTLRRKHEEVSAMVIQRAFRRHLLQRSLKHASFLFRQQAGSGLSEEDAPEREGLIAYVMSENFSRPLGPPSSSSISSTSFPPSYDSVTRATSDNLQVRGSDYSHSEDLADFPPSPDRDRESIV
Note: assay procedure not described here.

CCCCCCCC(=O)N[C@H](CN1CCCC1)[C@H](O)c1ccc2c(c1)OCCO2
AC50 [1]: > 30 µM

C[C@]1(COc2ccc(N3CCC(Oc4ccc(OC(F)(F)F)cc4)CC3)cc2)Cn2cc([N+](=O)[O-])nc2O1
AC50 (Androgen receptor [2]): > 30 µM | AC50 (Estrogen receptor beta): > 30 µM

C[C@]12CC[C@H](O)CC1=CC[C@@H]1[C@@H]2CC[C@]2(C)C(c3cccnc3)=CC[C@@H]12 [ABIRATERONE]
AC50 (Androgen receptor [2]): > 30 µM

CC(=O)OCC[N+](C)(C)C [ACETYLCHOLINE]
AC50 (Estrogen receptor beta): > 30 µM

O=C(Nc1nc(-c2cc(Cl)cs2)c(N2CCN(C3CCCCC3)CC2)s1)c1cnc(N2CCC(C(=O)O)CC2)c(Cl)c1 [AVATROMBOPAG]
AC50 [3]: > 10 µM | AC50 (Substance-K receptor): > 10 µM | AC50 [1]: > 30 µM | AC50 [4]: > 10 µM | AC50 (Cannabinoid receptor 1): > 10 µM

CN(C)C(=O)Oc1cc(OC(=O)N(C)C)cc(C(O)CNC(C)(C)C)c1 (configuration not stated) [BAMBUTEROL]
AC50 (Androgen receptor [5]): > 30 µM | AC50 (Androgen receptor [6]): > 30 µM

C[C@H]1C[C@H]2[C@@H]3CCC4=CC(=O)C=C[C@]4(C)[C@@]3(Cl)[C@@H](O)C[C@]2(C)[C@@]1(O)C(=O)CO [BECLOMETHASONE]
AC50 [7]: > 10 µM

CO/N=C(\C(=O)N[C@@H]1C(=O)N2C(C(=O)[O-])=C(C[n+]3cccc4c3CCC4)CS[C@H]12)c1csc(N)n1 [CEFPIROME]
AC50 [8]: > 30 µM

Oc1c(I)cc(Cl)c2cccnc12 [CLIOQUINOL]
AC50 [8]: > 30 µM | AC50 [1]: > 30 µM

COc1ccc2c(c1)[C@]13CCCC[C@@H]1[C@H](C2)N(C)CC3 [DEXTROMETHORPHAN]
AC50 (Estrogen receptor beta): > 30 µM | AC50 [9]: > 30 µM

O=c1oc2ccccc2c(O)c1Cc1c(O)c2ccccc2oc1=O [DICUMAROL]
AC50 (Androgen receptor [2]): > 10 µM

O=C(CCCN1CC=C(n2c(=O)[nH]c3ccccc32)CC1)c1ccc(F)cc1 [DROPERIDOL]
AC50 [9]: 49 µM

CCn1cc(C(=O)O)c(=O)c2cc(F)c(N3CCNCC3)nc21 [ENOXACIN]
AC50 [3]: > 10 µM | AC50 (Substance-K receptor): > 10 µM | AC50 [4]: > 10 µM | AC50 (Estrogen receptor beta): > 30 µM | AC50 (Cannabinoid receptor 1): > 10 µM

O=C(O)CSCC(=O)NC1CCSC1=O (configuration not stated) [ERDOSTEINE]
AC50 (Androgen receptor [5]): > 30 µM | AC50 (Androgen receptor [6]): > 30 µM

CCC(=O)O[C@@H]1CC(=O)O[C@H](C)C/C=C/C=C/[C@H](OC(C)=O)[C@H](C)C[C@H](CC=O)[C@H](O[C@@H]2O[C@H](C)[C@@H](O[C@H]3C[C@@](C)(OC(C)=O)[C@@H](OC(=O)CC)[C@H](C)O3)[C@H](N(C)C)[C@H]2O)[C@H]1OC [MIOCAMYCIN]
AC50 [1]: > 30 µM

N=C(N)c1ccc2cc(OC(=O)c3ccc(N=C(N)N)cc3)ccc2c1 [NAFAMOSTAT]
AC50 (Androgen receptor [6]): 12 µM

C1CNCCN1 [PIPERAZINE]
AC50 [1]: > 30 µM

COCCCOc1ccnc(C[S+]([O-])c2nc3ccccc3[nH]2)c1C (configuration not stated) [RABEPRAZOLE]
AC50 [7]: > 10 µM | AC50 (Estrogen receptor beta): > 30 µM

CC(C)=CCOc1ccc(/C=C/C(=O)c2ccc(OCC=C(C)C)cc2OCC(=O)O)cc1 [SOFALCONE]
AC50 (Androgen receptor [5]): 6.1 µM | AC50 (Androgen receptor [6]): > 30 µM

O=C(CCCN1CCC2(CC1)C(=O)NCN2c1ccccc1)c1ccc(F)cc1 [SPIPERONE]
AC50 [8]: > 30 µM

CN(C)c1cc(NC(=O)CNC(C)(C)C)c(O)c2c1C[C@H]1C[C@H]3[C@H](N(C)C)C(O)=C(C(N)=O)C(=O)[C@@]3(O)C(O)=C1C2=O [TIGECYCLINE]
AC50 (Androgen receptor [2]): > 30 µM

OCCN1CCN(CC/C=C2/c3ccccc3Sc3ccc(Cl)cc32)CC1 [ZUCLOPENTHIXOL]
AC50 (Androgen receptor [2]): > 10 µM
